Reference: paper PMC8630742, “Citrullinated Epitopes Identified on Tumour MHC Class II by Peptide Elution Stimulate Both Regulatory and Th1 Responses and Require Careful Selection for Optimal Anti-Tumour Responses” (Frontiers in Immunology, 2021)

Experiments:
[1] = test system: HLA-DP4; assay: HLA-DP4 competition binding assay against biotinylated Hepatitis B peptide (membrane preps, ELISA); design: species or system human; conditions: Figure 1D; for binding of the reference Hepatitis B peptide in presence of competitor (% maximal binding): equal quantity of non-biotinylated competitor and 10 µg biotinylated HepB 181-193, B16HHDII/cDP4 membrane preps, 4 hrs 37°C, streptavidin ELISA, anti-HLA-DP; for competition with the Hepatitis B reference peptide: equal quantity of competitor and 10 µg biotinylated HepB 181-193
Method: Binding of peptides to HLA-DP4 was assessed by extraction of membrane fractions from B16HHDII/cDP4 cells using Mem-PER™ Plus Membrane Protein Extraction Kit (Thermo Fisher-Scientific) according to manufacturer’s instructions. Membrane preps containing HLA-DP4 were incubated with 10 µg biotinylated peptide for 4hrs at 37°C. For competition assays, the membrane preps and 10 µg biotinylated Hepatitis B peptide were pre-incubated in the presence of specified concentrations of non-biotinylated peptides. Biotinylated peptide bound to HLA-DP4 was detected by capture onto streptavidin-coated ELISA plates and detected with anti-HLA-DP antibody clone B7/21 (Leinco Technologies Inc, USA) and anti-mouse IgG3 HRP antibody (Invitrogen, UK). Binding was quantified with TMB substrate and absorbance read at 405nm wavelength.
Figure 1 Citrullinated peptide combination vaccination provides poor tumour therapy in HLA-DP4 transgenic mice. HLA-DP4 transgenic mice were challenged with B16 cells constitutively expressing DP4 (A) or expressing DP4 under an IFNγ inducible promoter (B) and four days later mice were immunised with combination of 10ug each of seven eluted peptides and tumour growth and survival monitored. N=10/group. (C), HLA-DP4 transgenic mice were immunised with seven peptide combination vaccine at days 1, 8 and 15 and immune responses monitored at day 21 by IFNγ ELISpot assay. Results are representative of at least two independent experiments in which n=3. (D), Competition of equal quantity of non-biotinylated competitor peptides in the presence of 10µg biotinylated HepB 181-193 peptide. Results are representative of at least two independent experiments.

[2] = test system: B16/HHDII/cDP4 (B16cDP4) cells; assay: Tumour therapy, B16cDP4 melanoma in HLA-DP4 transgenic mice; assay type: in vivo, mouse; conditions: for tumour free survival: 25ug individual peptide with CpG/MPLA, n=10/group, Figure 4A; for overall survival at day 50 / tumour growth: 25ug individual peptide, compared to unimmunised control, Figure 4
Method: (§1) For all studies, the mice were randomised into different groups but not blinded to the investigators. Peptides were dissolved in PBS and then emulsified with CpG (ODN 1826, Invivogen) and MPLA (Invivogen) and delivered at 10 or 25µg dose unless stated otherwise. Adjuvants were used at 5µg/dose. Peptides in adjuvant were injected subcutaneously at the base of the tail. Mice were immunised on day 1, 8 and 15 and spleens were removed for analysis at day 21.
For the tumour therapy studies, HHDII/DP4 transgenic mice were challenged by subcutaneous injection with 5 × 105 B16/HHDII/cDP4 (B16cDP4) cells or 1 × 105 B16/HHDII/iDP4 (B16iDP4) cells subcutaneously on the flank at day 1 and then immunised on days 4, 11 and 18. Tumour growth was monitored at 3–4 days intervals and mice were humanely euthanised once tumour approached 15mm diameter.

[3] = test system: splenocytes (IL-10); assay: Ex vivo IL-10 ELISpot assay on splenocytes of immunised mice; assay type: in vivo, mouse; conditions: for IL-10 response to immunising peptide: HLA-DP4 transgenic mice, 25ug single peptide with CpG/MPLA days 1, 8, 15, day 21, Figure 3A
Method: as §1
(§2) ELISpot assays were performed using murine IFNγ and IL-10 capture and detection reagents according to the manufacturer’s instructions (Mabtech). In brief, the specific cytokine antibodies were coated onto wells of 96-well Immobilin-P plates. Synthetic peptides (Genescript) were used at 10 µg/mL and diluted in culture media (RPMI medium 1640 (GIBCO/BRL) supplemented with 10% FCS (Sigma), 2mM L-glutamine (Sigma) and sodium bicarbonate buffered with additional 20mM HEPES (Sigma) and 50 µM 2-mercaptoethanol (2ME, Thermofisher). 5x10^5/well splenocytes were added in quadruplicate wells, plates were incubated for 40 hours at 37 °C/5% CO2. Cells with culture media only were added as negative control and cells cultured with 5 µg/ml Lipopolysaccharide (LPS, Sigma) were used as a positive control. Where relevant anti-CD4 (human clone OKT4, BioXcell) or CD8 (mouse clone 2.43, BioXcell) blocking antibodies were added to splenocytes at 20µg/ml for 15 minutes prior to stimulation with peptide. After incubation, captured cytokine was detected by biotinylated cytokine specific antibody and developed using streptavidin alkaline phosphatase and chromogenic substrate. Spots were analysed and counted using an automated plate reader (Cellular Technologies Ltd). Results were represented as spots/million splenocytes.

[4] = test system: splenocytes (IFNγ); assay: Ex vivo IFNγ ELISpot assay on splenocytes of immunised mice; assay type: in vivo, mouse; conditions: for IFNγ response at lower (10µg) immunising peptide dose / IFNγ response to immunising peptide: HLA-DP4 transgenic mice; for IFNγ response at lower (10µg) immunising peptide dose: 10µg single peptide, Figure 2F; for IFNγ response to immunising peptide: 25µg single peptide with CpG and MPLA days 1, 8, 15, splenocytes day 21, 10 µg/mL peptide, Figure 2A; for IFNγ response in presence of CD4 blocking antibody: anti-CD4 OKT4 20µg/ml, C; for avidity of the immune response: titrating quantities of peptide in IFNγ ELISpot, Figure 2E
Method: as §1
as §2, with “Synthetic peptides (Genescript) were used at 10 µg/mL and diluted in culture media” left out

[5] = mice immunised with 25ug peptide, Figure 2B
[6] = mice immunised with 25ug peptide

Substance	binding of the reference Hepatitis B peptide in presence of competitor (% maximal binding) [1]	tumour free survival [2] [%]	overall survival at day 50 / tumour growth [2]	IL-10 response to immunising peptide [3]	IFNγ response to immunising peptide [4]	other results
MDEIDAIGG-cit-RFSEGTSADREIQ [cit26S-10B, Synthetic citrullinated peptide 26S protease regulatory subunit 10B 246-268]	30-35%					
EPKSSCYNTHEK-cit-IYQSNMLN-cit-YLI [citGRI, Synthetic citrullinated peptide Glutamate receptor ionotropic 316-340]	40-50%	70	significant overall survival	some IL-10-producing cells	strong IFNγ responses	IFNγ response at lower (10µg) immunising peptide dose [4]: failed to stimulate an immune response; IFNγ response in presence of CD4 blocking antibody [4, 5]: efficiently blocked; avidity of the immune response [4, 6]: 10^-7 M
KRDVTLEAS-cit-ESSKP-cit-AVLKP-cit- [citSeThrePho, Synthetic citrullinated peptide Serine/threonine-protein phosphatase 2A 55 kDa regulatory subunit B gamma isoform 370-391]	30-35%					
collagen [reference compound]						competition with the Hepatitis B reference peptide [1]: no competition
EPKSSCYNTHEKRIYQSNMLNRYLI [GRI, synthetic native peptide Glutamate receptor ionotropic 316-340]						IFNγ response to unmodified peptide in mice immunised with the citrullinated peptide ([4]; mice immunised with 25ug citGRI, Figure 2B): cross reactivity
fibrinogen [reference compound]						competition with the Hepatitis B reference peptide [1]: no competition
VFDWIRKERNQYGEVRV-cit-FNTYFFR [citMMP21, Synthetic citrullinated peptide Matrix metalloproteinase-21 337-360]	40-50%	90	strong overall survival	some IL-10-producing cells	strong IFNγ responses	IFNγ response in HHDII/DR1 transgenic mice ([4]; HHDII/DR1 mice, Figure 2D): No responses; IFNγ response at lower (10µg) immunising peptide dose [4]: only the response to citMMP21 was observed; IFNγ response in presence of CD4 blocking antibody [4, 5]: reduced; IFNγ response in presence of CD8 blocking antibody ([4]; anti-CD8 2.43 20µg/ml, mice immunised with 25ug peptide, Figure 2C): No significant blocking; avidity of the immune response [4, 6]: 10^-8 M
NGQT-cit-EHALLAYTLGVKQLIVGVNK [citELO, Synthetic citrullinated peptide Elongation factor 1-alpha 1 130-154]	40-50%					
ML-cit-CASGAEL-cit-QPPRDVPPDAR [cit5T4, Synthetic citrullinated peptide Trophoblast glycoprotein-like protein 40-61]	40-50%					
LEIY-cit-YTSFVPFTIPHSTTR [citCp450, Synthetic citrullinated peptide Cytochrome P450 1A2 373-392]	40-50%	20	tumour growth similar to control	strong IL-10 response	absence of any detectable IFNγ response	IL-10 response in HHDII/DR1 mice ([3]; HHDII/DR1 compared to HHDII/DP4 mice, Figure 3C): fail to be stimulated; IL-10 response in presence of CD4 blocking antibody ([3]; mice immunised with 25ug citCp450, did not reach significance, Figure 3B): reduction in response; IL-10 response when delivered as part of the combination vaccine ([3]; seven peptide combination vaccine, Figure 3D): stimulated IL-10 responses
